This is an account of results in patent US8937183B2, “Detection of hydrogen peroxide” (Promega Corporation, priority 2011, dated 2015).

What all share (assay type): biochemical
Assay [1] can be described thus: Light generation from compounds following incubation with hydrogen peroxide in different pH solutions (D-cysteine conversion, LDR). The conditions noted are these: for Signal to Background Ratios: signal with peroxide to background no peroxide. As for the experimental part: In this experiment, various compounds were tested for their ability to detect hydrogen peroxide in different pH solutions. Several compounds are shown to give much better signal strength and signal to background ratios than PBI 3048 (Example 23). 4 mg/ml solutions of compounds PBI 4480, 4481, 4452, 4470, 4472, 3048 (FIGS. 1 and 2) were made by dissolving them in DMSO (Fluka 41641). 30 μl of the compound solutions was diluted to 1.5 ml with Nanopure water, and 50 μl aliquots added as follows into a white, 96-well luminometer plate: PBI 4481, row A1-12; PBI 4480, row B1-12; PBI 4452, row C1-12; PBI 3048, row D1-12; PBI 4472, row E1-12 and PBI 4470, row F1-12.
25 μl of 200 mM TRIS buffer, pH 7.6 was added to wells A1-F4, 25 μl of 200 mM TRIS buffer, pH 8.8 was added to wells A5-F8, and 25 μl of 200 mM Tris buffer, pH 10.4 was added […].
30% hydrogen peroxide (Sigma H 1009-5 ml) was diluted to 40 μM in Nanopure water, and 25 μl added to columns 3, 4, 7, 8, 11 and 12 of the plate. 25 μl water was added to columns 1, 2, 5, 6, 9, and 10 of the plate, and the plate incubated at room temperature for 60 minutes.
A conversion solution was made by mixing 100 μl of 100 mM D-cysteine, 1 ml Tris Buffer pH 8.8 and 8.9 ml nanopure water. After mixing, 80 μl of the solution was added to wells A1-F12 of a new luminometer plate.
After incubation, 20 μl of sample from wells A1-F12 of the first plate was transferred to the same well in the new luminometer plate. The new plate was incubated at room temperature for 5 minutes, 100 μl of LDR (Example 23) was added to wells A1-F12, and bioluminescence detected on a Glo Max® luminometer (Promega).
The RLUs for the duplicate wells were averaged. The averages for the wells containing hydrogen peroxide were compared to the wells without hydrogen peroxide at the same pH (Table 2). BZT is used to designate benzothiazole derivatives of the compounds.
The Signal to Background (S/B) ratio is used to compare assay reagents with very difference signal strengths. An assay with a higher S/B ratio is often considered a better assay than one with a smaller S/B ratio (with all other factors being relatively equal).

Assay [2] can be described thus: Signal differences in mammalian cell culture media (DMEM) versus physiological buffer (HBSS) with hydrogen peroxide. The conditions noted are these: 30 minutes. How it is done:
A 100 μl sample of 4 mg/ml DMSO solution of PBI 4458 was diluted to 500 μl with HBSS buffer (Invitrogen 14025-092), and 50 μl added to wells A1-A9 of a fresh microtiter plate (“DISP”). 100 μl 4 mg/ml DMSO solution of PBI 4472 was diluted to 500 μl with HBSS, and 50 μl added to wells E1-E9. 90 μl HBSS was added to wells A1-B9 of two new microtiter plates labeled “RT” and “37C”. 90 μl DMEM was added to wells C1-D9 of both plates.
A sample of 30% hydrogen peroxide (Sigma H1009-5 ml) was diluted to 1 mM with Nanopure water, and 7.5 μl 1 mM hydrogen peroxide diluted to 1.5 ml with HBSS, and 90 μl added to wells A4-B6 of plates RT and 37° C. 15 μl 1 mM hydrogen peroxide was diluted to […] with HBSS, and 90 μl added to wells A7-B9 of both plates. 90 μl of HBSS was added to wells A1-B3, and 90 μl of DMEM added to wells C1-D3 of both plates. 7.5 μl 1 mM hydrogen peroxide was diluted to 1.5 ml with DMEM, and 90 μl added to wells C4-D6 of both plates. 15 μl 1 mM hydrogen peroxide was diluted to 1.5 ml with DMEM and 90 μl added to wells C7-D9 of both plates.
10 μl samples of row A of plate “DISP” was transferred to rows A and C of plates RT and 37° C., and 10 μl of row B of plate “DISP” transferred to rows B and D of plates RT and 37° C. The 37° C. plate was incubated at 37° C., 5% CO2, with plate RT incubated at room temperature. Both plates were incubated for 30 minutes.
A conversion solution was made by mixing 7.5 ml of 1 M HEPES, pH 8.0, 7.4 ml Nanopure water and 100 μl 100 mM D cysteine. After mixing, 75 μl was added to all wells of a new luminometer plate.
After incubation, 25 μl from wells A1-D9 of the 37° C. plate was transferred to wells E1-H9 of the new luminometer plate, 25 μl of wells A1-D9 of the RT plate was transferred to wells A1-D9 of new luminometer plate, and the plate incubated at room temperature for 2-3 minutes. A 100 μl sample of LDR (Example 23) was added to wells A1-H9, incubated for 15 minutes at room temperature, and bioluminescence detected on a GloMax® luminometer. After reading, the duplicate wells were averaged, and the averaged values with peroxide addition were compared to those without peroxide (Table 11).

Assay [3] in a line: Background reduction of PBI 4472 with background reduction reagent (TCEP). The conditions noted are these: 50 μM, 100 mM Tris base pH 10.4, BRR (TCEP) versus untreated, FIG. 4. How it is done: PBI 4472 (50 μM) was incubated with assay buffer (100 mM Tris base, pH 10.4) for 15 minutes at room temperature. The samples were then either treated with a background reduction reagent (BRR; TCEP) or remained untreated. After a 15 minute incubation at room temperature, luciferin detection reagent with 1 mM D-cysteine (Promega Corporation) was added to the samples and incubated for 20 minutes at room temperature. Luminescence was detected on a Tecan F500 plate reader.

Where [4] appears, read: pH 7.6 TRIS buffer, No H2O2, 60 minutes.
Setting [5] is: pH 7.6 TRIS buffer, With H2O2 (25 μl of 40 μM added), 60 minutes.
[6] abbreviates: pH 8.8 TRIS buffer, No H2O2, 60 minutes.
Setting [7] is: pH 8.8 TRIS buffer, With H2O2 (25 μl of 40 μM added), 60 minutes.
[8] abbreviates: pH 10.4 Tris buffer, No H2O2, 60 minutes.
Where [9] appears, read: pH 10.4 Tris buffer, With H2O2 (25 μl of 40 μM added), 60 minutes.

SMILES strings stand for the structures.

Consider `O=C(O)C1CSC(c2nc3ccc(OCc4ccc(B(O)O)cc4)cc3s2)=N1` (stereo not shown) [PBI 3048], for which the “Signal to Background Ratios” value was 3.0 in assay [1] (pH 7.6), 4.5 in assay [1] (pH 8.8) and 6.7 in assay [1] (pH 10.4). For the same compound, the “averaged RLUs (bioluminescence)” value in assay [1] (setting [4]) is 569,141 RLU; in assay [1] (setting [5]) it was 1,726,143 RLU; in assay [1] (setting [6]) it was 558,869 RLU; in assay [1] (setting [7]), 2,499,869 RLU; in assay [1] (setting [8]) it was 558,333 RLU; in assay [1] (setting [9]), 3,768,437 RLU.
On to `CC1(C)OB(/C=C/COc2ccc3nc(C#N)sc3c2)OC1(C)C` [PBI 4458, (E)-6-((3-(4,4,5,5-tetramethyl-1,3,2-dioxaborolan-2-yl)allyl)oxy)-benzo[d]thiazole-2-carbonitrile], for which the “Averaged Relative Light Unit Values” is recorded as 986,772 Relative Light Unit in assay [2] (DMEM, 37 C. plate, 0 uM Per); 5,686,033 Relative Light Unit in assay [2] (DMEM, 37 C. plate, 5 uM Per); 12,130,782 Relative Light Unit in assay [2] (DMEM, 37 C. plate, 10 uM Per); 2,075,191 Relative Light Unit in assay [2] (DMEM, RT plate, 0 uM Per); 8,556,256 Relative Light Unit in assay [2] (DMEM, RT plate, 5 uM Per); 16,016,143 Relative Light Unit in assay [2] (DMEM, RT plate, 10 uM Per). Besides, the “Averaged Relative Light Unit Values” in assay [2] (HBSS, 37 C. plate, 0 uM Per) is recorded as 434,728 Relative Light Unit; in assay [2] (HBSS, 37 C. plate, 5 uM Per) it was 2,791,805 Relative Light Unit; in assay [2] (HBSS, 37 C. plate, 10 uM Per), 4,912,905 Relative Light Unit; in assay [2] (HBSS, RT plate, 0 uM Per) it was 853,268 Relative Light Unit; in assay [2] (HBSS, RT plate, 5 uM Per), 6,111,214 Relative Light Unit; in assay [2] (HBSS, RT plate, 10 uM Per) it was 10,641,411 Relative Light Unit.
Take `CC1(C)OB(c2ccc(COc3ccc4nc(C#N)sc4c3)cc2)OC1(C)C` [PBI 4472, 6-((4-(4,4,5,5-tetramethyl-1,3,2-dioxaborolan-2-yl)benzyl)oxy)benzo-[d]thiazole-2-carbonitrile]: the “Signal to Background Ratios” value turned out to be 18.0 in assay [1] (pH 7.6), 31.6 in assay [1] (pH 8.8) and 24.1 in assay [1] (pH 10.4). Further, the “averaged RLUs (bioluminescence)” value in assay [1] (setting [4]) was 102,925 RLU; in assay [1] (setting [5]) it was 1,854,434 RLU; in assay [1] (setting [6]), 163,710 RLU; in assay [1] (setting [7]), 5,175,361 RLU; in assay [1] (setting [8]) it was 337,921 RLU; in assay [1] (setting [9]) it was 8,159,216 RLU. The “Averaged Relative Light Unit Values” was 400,077 Relative Light Unit in assay [2] (DMEM, 37 C. plate, 0 uM Per); 3,083,589 Relative Light Unit in assay [2] (DMEM, 37 C. plate, 5 uM Per); 5,340,569 Relative Light Unit in assay [2] (DMEM, 37 C. plate, 10 uM Per); 921,496 Relative Light Unit in assay [2] (DMEM, RT plate, 0 uM Per); 4,304,645 Relative Light Unit in assay [2] (DMEM, RT plate, 5 uM Per); 8,071,553 Relative Light Unit in assay [2] (DMEM, RT plate, 10 uM Per). Besides, the “Averaged Relative Light Unit Values” is 44,007 Relative Light Unit in assay [2] (HBSS, 37 C. plate, 0 uM Per); 424,851 Relative Light Unit in assay [2] (HBSS, 37 C. plate, 5 uM Per); 715,803 Relative Light Unit in assay [2] (HBSS, 37 C. plate, 10 uM Per); 103,738 Relative Light Unit in assay [2] (HBSS, RT plate, 0 uM Per); 1,106,195 Relative Light Unit in assay [2] (HBSS, RT plate, 5 uM Per); 2,058,421 Relative Light Unit in assay [2] (HBSS, RT plate, 10 uM Per). The “background luminescence with reduction reagent (in words)” value in assay [3] is “can reduce background”.
Turning to `CC1(C)OB(c2ccc(COc3ccc4nc(C#N)sc4c3)c3ccccc23)OC1(C)C` [PBI 4480, 6-((4-(4,4,5,5-tetramethyl-1,3,2-dioxaborolan-2-yl)naphthalen-1-yl)methoxy)benzo[d]thiazole-2-carbonitrile], the “Signal to Background Ratios” value is recorded as 4.5 in assay [1] (pH 7.6), 8.7 in assay [1] (pH 8.8) and 20.0 in assay [1] (pH 10.4). Besides, the “averaged RLUs (bioluminescence)” value in assay [1] (setting [4]) is given as 146,664 RLU; in assay [1] (setting [5]), 657,132 RLU; in assay [1] (setting [6]), 179,821 RLU; in assay [1] (setting [7]), 1,563,422 RLU; in assay [1] (setting [8]) it was 265,315 RLU; in assay [1] (setting [9]), 5,295,463 RLU.
For `CC1(C)OB(c2ccc(COc3ccc4nc(C#N)sc4c3)cc2F)OC1(C)C` [PBI 4481, 6-((3-fluoro-4-(4,4,5,5-tetramethyl-1,3,2-dioxaborolan-2-yl)benzyl)oxy)benzo[d]thiazole-2-carbonitrile], the entries for the “Signal to Background Ratios” value in assay [1] (pH 7.6), in assay [1] (pH 8.8) and in assay [1] (pH 10.4) were 7.0, 21.1 and 32.4, respectively. The “averaged RLUs (bioluminescence)” value is recorded as 124,246 RLU in assay [1] (setting [4]); 873,626 RLU in assay [1] (setting [5]); 135,530 RLU in assay [1] (setting [6]); 2,854,279 RLU in assay [1] (setting [7]); 230,459 RLU in assay [1] (setting [8]); 7,474,603 RLU in assay [1] (setting [9]).
